Read-outs that look alike come from different tables or passages of the source. A value given as a limit tells only on which side of the number the result lay.

Broadly, the IC50 is the concentration that inhibits the measured activity by half.

The target in the test is 3CL Protease (Severe acute respiratory syndrome coronavirus 2, UniProt P0DTD1). Nature of the test: 3CL Protease enzymatic activity assay (BPS Bioscience Assay Kit #78043-1, fluorescence). It counts as biochemical, SARS-CoV-2. How it is done: For determination of 3CL Protease enzymatic activity was used Assay Kit of BPS Bioscience, San Diego, CA (Catalog #78043-1).
All samples and controls should be tested in duplicate. • 1) Just before use, dilute 0.5 M DTT 500 times into the 3CL Protease Assay Buffer to obtain a DTT concentration of 1 mM. For example, add 10 μl of 0.5 M DTT to 5 ml of assay buffer. Prepare enough DTT-containing buffer as required for the assay. Store the remaining assay buffer at −20° C. • 2) Thaw the 3CL Protease on ice. Briefly spin the tube containing the enzyme to recover the full content of the tube. Note: 3CL Protease enzyme is sensitive to freeze/thaw cycles. […] Note: The exact concentration and volume of enzyme is lot-specific and will be indicated on the tube. Calculate required dilution from the information in the tube. It may be desirable to dilute the enzyme serially to avoid using large amounts of protease assay buffer for the dilution. • 4) Add 30 μl of diluted 3CL Protease to the wells designated as “Positive Control,” “Inhibitor Control,” and “Test Inhibitor.” Add 30 μl of Assay Buffer (containing 1 mM DTT) to the “Blank” wells. • 5) Dilute the 50 μg GC376 in 200 μl of Assay Buffer to obtain a 500 μM solution. Add 10 μl of GC376 (500 μM) to the wells labeled “Inhibitor Control”. Aliquot and store the remaining solution at −80° C. • 6) Prepare the Test Inhibitor. The final concentration of DMSO in the assay should not exceed 1%. If the Test Inhibitor is dissolved in DMSO, make a 100-fold higher concentration of the compound than the highest desired concentration. Then make a 20-fold dilution in 1× Assay Buffer (containing DTT). At this step the compound concentration is 5-fold higher than the final concentration. If the test inhibitor is dissolved in water, make a 5-fold higher concentration of the test compound than the final desired concentration in the Assay buffer (containing DTT). Add 10 μl of Test Inhibitor to each well designated “Test Inhibitor”. • 7) Diluent Solution (no inhibitor): add 10 μl of assay buffer (if the test compound is water soluble and was diluted in assay buffer) or 10 μl of 5% DMSO diluted in assay buffer (if DMSO was used to dissolve the test inhibitor) to “Blank” and “Positive Control” wells.
• 8) Preincubate for 30 min at room temperature with slow shaking. • 9) Dilute the 25 μl of 3CL Protease substrate (10 mM) in 1.25 ml of the Assay Buffer containing DTT, to make a […] solution. The final concentration of the 3CL Protease substrate in a 50 μl reaction is 40 μM. • 10) Start the reaction by adding 10 μl of the substrate solution to all the wells. Seal the plate with the plate sealer and incubate for 4 hours at room temperature with slow shaking. • 11) Measure the fluorescence intensity in a microtiter plate-reader fluorometer (Tecan Spark Cyto) capable of excitation at a wavelength 360 nm and detection of emission at a wavelength 460 nm. The fluorescence intensity can also be measured kinetically. The “Blank” value is subtracted from all other values. • The % inhibition was then used to calculate the IC50 values.

Setting [1] is: Table A, 30 min preincubation, 40 μM substrate, 4 hours at room temperature, read-out: IC50, nM (3CL Protease enzymatic activity).
The mark [2] stands for this setting: Table B, comparison with known compound K, read-out: IC50, nM (3CL Protease enzymatic activity, comparative data).

In the case of `CC(C)(C)[C@H](NC(=O)C(F)(F)F)C(=O)N1C[C@H]2[C@@H]([C@H]1C(=O)NC(C#N)Cc1cc3c([nH]c1=O)CCCC3)C2(C)C` (mixture of isomers) [Compound 121, (1R,2S,5S)—N-(1-Cyano-2-(2-oxo-1,2,5,6,7,8-hexahydroquinolin-3-yl)ethyl)-3-((S)-3,3-dimethyl-2-(2,2,2-trifluoroacetamido)butanoyl)-6,6-dimethyl-3-azabicyclo[3.1.0]hexane-2-carboxamide], the concentration for half-maximal inhibition (IC50) under setting [1] fell in the range of 250 to 500 nM.

With `CC(C)(C)[C@H](NC(=O)C(F)(F)F)C(=O)N1C[C@H]2C([C@H]1C(=O)NC(C#N)Cc1ccc[nH]c1=O)C2(C)C` (stereo in doubt) [Compound 101, (1R,2S,5S)—N-(1-Cyano-2-(2-oxo-1,2-dihydropyridin-3-yl)ethyl)-3-((S)-3,3-dimethyl-2-(2,2,2-trifluoroacetamido)butanoyl)-6,6-dimethyl-3-azabicyclo[3.1.0]hexane-2-carboxamide], the concentration for half-maximal inhibition (IC50) under setting [1] was 100 to 250 nM and the half-maximal inhibitory concentration (IC50) under setting [2] amounted to 147 nM. `Cc1ccc2[nH]c(=O)c(CC(C#N)NC(=O)[C@@H]3C4[C@H](CN3C(=O)[C@@H](NS(C)(=O)=O)C(C)(C)C)C4(C)C)cc2c1` (stereo in doubt) [Compound 102, (1R,2S,5S)—N-(1-Cyano-2-(6-methyl-2-oxo-1,2-dihydroquinolin-3-yl)ethyl)-3-((S)-3,3-dimethyl-2-(methylsulfonamido)butanoyl)-6,6-dimethyl-3-azabicyclo[3.1.0]hexane-2-carboxamide]: the IC50 under setting [1] is < 50 nM. As to `CC(C)(C)[C@H](NC(=O)C(F)(F)F)C(=O)N1C[C@H]2C([C@H]1C(=O)NC(C#N)Cc1cc3cc(Cl)ccc3[nH]c1=O)C2(C)C` (stereo in doubt) [Compound 104, (1R,2S,5S)—N-(2-(6-Chloro-2-oxo-1,2-dihydroquinolin-3-yl)-1-cyanoethyl)-3-((S)-3,3-dimethyl-2-(2,2,2-trifluoroacetamido)butanoyl)-6,6-dimethyl-3-azabicyclo[3.1.0]hexane-2-carboxamide], the half-maximal inhibitory concentration (IC50) runs as follows: under setting [1], 50 to 100 nM; under setting [2], 89 nM.

For `CC(C)(C)[C@H](NC(=O)C(F)(F)F)C(=O)N1C[C@H]2C([C@H]1C(=O)NC(C#N)Cc1cc3ccc(Cl)cc3[nH]c1=O)C2(C)C` (stereo in doubt) [Compound 105, (1R,2S,5S)—N-(2-(7-Chloro-2-oxo-1,2-dihydroquinolin-3-yl)-1-cyanoethyl)-3-((S)-3,3-dimethyl-2-(2,2,2-trifluoroacetamido)butanoyl)-6,6-dimethyl-3-azabicyclo[3.1.0]hexane-2-carboxamide], the half-inhibitory concentration (IC50) under setting [1] was in the range of 50 to 100 nM. Consider `CC(C)(C)[C@H](NC(=O)C(F)(F)F)C(=O)N1C[C@H]2C([C@H]1C(=O)NC(C#N)Cc1cc3ccc(F)cc3[nH]c1=O)C2(C)C` (stereo in doubt) [Compound 106, (1R,2S,5S)—N-(1-Cyano-2-(7-fluoro-2-oxo-1,2-dihydroquinolin-3-yl)ethyl)-3-((S)-3,3-dimethyl-2-(2,2,2-trifluoroacetamido)butanoyl)-6,6-dimethyl-3-azabicyclo[3.1.0]hexane-2-carboxamide], for which the IC50 under setting [1] was 100 to 250 nM. Still for that read-out and setting: in the case of `Cc1ccc2[nH]c(=O)c(C[C@@H](C#N)NC(=O)[C@@H]3[C@H]4[C@H](CN3C(=O)[C@@H](NC(=O)C(F)(F)F)C(C)(C)C)C4(C)C)cc2c1` (stereo in doubt) [Compound 107, (1R,2S,5S)—N-(1-Cyano-2-(6-methyl-2-oxo-1,2-dihydroquinolin-3-yl)ethyl)-3-((S)-3,3-dimethyl-2-(2,2,2-trifluoroacetamido)butanoyl)-6,6-dimethyl-3-azabicyclo[3.1.0]hexane-2-carboxamide] it was 50 to 100 nM; in that of `COc1ccc2[nH]c(=O)c(CC(C#N)NC(=O)[C@@H]3C4[C@H](CN3C(=O)[C@@H](NC(=O)C(F)(F)F)C(C)(C)C)C4(C)C)cc2c1` (stereo in doubt) [Compound 109, (1R,2S,5S)—N-(1-Cyano-2-(6-methoxy-2-oxo-1,2-dihydroquinolin-3-yl)ethyl)-3-((S)-3,3-dimethyl-2-(2,2,2-trifluoroacetamido)butanoyl)-6,6-dimethyl-3-azabicyclo[3.1.0]hexane-2-carboxamide], 250 to 500 nM. Turning to `Cn1cccc(CC(C#N)NC(=O)[C@@H]2C3[C@H](CN2C(=O)[C@@H](NC(=O)C(F)(F)F)C(C)(C)C)C3(C)C)c1=O` (stereo in doubt) [Compound 112, (1R,2S,5S)—N-(1-Cyano-2-(1-methyl-2-oxo-1,2-dihydropyridin-3-yl)ethyl)-3-((S)-3,3-dimethyl-2-(2,2,2-trifluoroacetamido)butanoyl)-6,6-dimethyl-3-azabicyclo[3.1.0]hexane-2-carboxamide], the IC50 under setting [1] is ≥ 1000 nM.

With `CC(C)(C)[C@H](NS(C)(=O)=O)C(=O)N1C[C@H]2C([C@H]1C(=O)NC(C#N)Cc1cc3c([nH]c1=O)CCCC3)C2(C)C` (stereo in doubt) [Compound 122, (1R,2S,5S)—N-(1-Cyano-2-(2-oxo-1,2,5,6,7,8-hexahydroquinolin-3-yl)ethyl)-3-((S)-3,3-dimethyl-2-(methylsulfonamido)butanoyl)-6,6-dimethyl-3-azabicyclo[3.1.0]hexane-2-carboxamide], the half-maximal inhibitory concentration (IC50) under setting [1] fell in the range of 100 to 250 nM. `CC(C)(C)[C@H](NC(=O)C(F)(F)F)C(=O)N1C[C@H]2C([C@H]1C(=O)NC(C#N)Cc1cc3c([nH]c1=O)CCOC3)C2(C)C` (stereo in doubt) [Compound 123, (1R,2S,5S)—N-(1-Cyano-2-(2-oxo-1,5,7,8-tetrahydro-2H-pyrano[4,3-b]pyridine-3-yl)ethyl)-3-((S)-3,3-dimethyl-2-(2,2,2-trifluoroacetamido)butanoyl)-6,6-dimethyl-3-azabicyclo[3.1.0]hexane-2-carboxamide]: the IC50 is, setting by setting: under setting [1], 100 to 250 nM; under setting [2], 180 nM.

Regarding `CC(C)(C)[C@H](NS(C)(=O)=O)C(=O)N1C[C@H]2C([C@H]1C(=O)NC(C#N)Cc1cc3c([nH]c1=O)CCOC3)C2(C)C` (stereo in doubt) [Compound 124, (1R,2S,5S)—N-(1-Cyano-2-(2-oxo-1,5,7,8-tetrahydro-2H-pyrano[4,3-b]pyridine-3-yl)ethyl)-3-((S)-3,3-dimethyl-2-(methylsulfonamido)butanoyl)-6,6-dimethyl-3-azabicyclo[3.1.0]hexane-2-carboxamide], under setting [1], the IC50 lay in the range of 100 to 250 nM. Still for that read-out and setting: as for `CC(C)(C)[C@H](NC(=O)C(F)(F)F)C(=O)N1C[C@H]2C([C@H]1C(=O)NC(C#N)Cc1cc3c([nH]c1=O)CCC(F)(F)C3)C2(C)C` (stereo in doubt) [Compound 125, (1R,2S,5S)—N-(1-Cyano-2-(6,6-difluoro-2-oxo-1,2,5,6,7,8-hexahydroquinolin-3-yl)ethyl)-3-((S)-3,3-dimethyl-2-(2,2,2-trifluoroacetamido)butanoyl)-6,6-dimethyl-3-azabicyclo[3.1.0]hexane-2-carboxamide], the figure is 250 to 500 nM; as for `CC(C)(C)[C@H](NS(C)(=O)=O)C(=O)N1C[C@H]2C([C@H]1C(=O)NC(C#N)Cc1cc3c([nH]c1=O)CCC(F)(F)C3)C2(C)C` (stereo in doubt) [Compound 126, (1R,2S,5S)—N-(1-Cyano-2-(6,6-difluoro-2-oxo-1,2,5,6,7,8-hexahydroquinolin-3-yl)ethyl)-3-((S)-3,3-dimethyl-2-(methylsulfonamido)butanoyl)-6,6-dimethyl-3-azabicyclo[3.1.0]hexane-2-carboxamide], 100 to 250 nM.

(Values after US20260015337A1 (Trawsfynydd Therapeutics, Inc., priority 2022, published 2026).)
